Values joined by “and” are separate entries in the source; they are usually repeats but may differ in a detail not shown here. Equal entries are not always repeated. Inconclusive results and toxic doses are left out. Rule for the calls: active = survival T/C of 150% or more; inactive = T/C below 125% in these data.
Test system: P388 leukemia ip, CD2F1 mice, survival T/C
Assay: NCI In Vivo Anticancer Drug Screen. Data for tumor model P388 Leukemia (intraperitoneal) in CD2F1 (CDF1) mice
Settings: endpoint: median survival time, higher = longer survival
In short: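 Mice carrying the transplanted tumor received test compound or vehicle. Survival was recorded in each group, and the value is the treated-group measurement divided by that of the vehicle-treated control group.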

[1] = dose: 25.0 mg/kg/injection, schedule: Q01DX009 (ip), vehicle: Klucel (hydroxypropylcellulose) (HPC)
[2] = dose: 50.0 mg/kg/injection, schedule: Q01DX009 (ip), vehicle: Klucel (hydroxypropylcellulose) (HPC)
[3] = dose: 100.0 mg/kg/injection, schedule: Q01DX009 (ip), vehicle: Klucel (hydroxypropylcellulose) (HPC)
[4] = dose: 200.0 mg/kg/injection, schedule: Q01DX009 (ip), vehicle: Klucel (hydroxypropylcellulose) (HPC)
[5] = dose: 60.0 mg/kg/injection, schedule: Q01DX005 (ip), vehicle: saline with Tween-80
[6] = dose: 120.0 mg/kg/injection, schedule: Q01DX005 (ip), vehicle: saline with Tween-80
[7] = dose: 12.5 mg/kg/injection, schedule: Q01DX009 (ip), vehicle: saline with Tween-80
[8] = dose: 25.0 mg/kg/injection, schedule: Q01DX009 (ip), vehicle: saline with Tween-80
[9] = dose: 50.0 mg/kg/injection, schedule: Q01DX009 (ip), vehicle: saline with Tween-80
[10] = dose: 50.0 mg/kg/injection, schedule: Q01DX005 (ip), vehicle: saline with Tween-80
[11] = dose: 100.0 mg/kg/injection, schedule: Q01DX005 (ip), vehicle: saline with Tween-80
[12] = dose: 200.0 mg/kg/injection, schedule: Q01DX005 (ip), vehicle: saline with Tween-80
[13] = dose: 100.0 mg/kg/injection, schedule: Q01DX009 (ip), vehicle: saline with Tween-80
[14] = dose: 200.0 mg/kg/injection, schedule: Q01DX009 (ip), vehicle: saline with Tween-80
[15] = dose: 60.0 mg/kg/injection, schedule: Q01DX005 (ip), vehicle: saline
[16] = dose: 120.0 mg/kg/injection, schedule: Q01DX005 (ip), vehicle: saline
[17] = dose: 240.0 mg/kg/injection, schedule: Q01DX005 (ip), vehicle: saline

Measured: T/C

CCC(=O)c1c(O)cc(O)cc1O
inactive: dose: 50.0 mg/kg/injection, schedule: Q04DX003 (ip), vehicle: saline with Tween-80 103 % of control | dose: 100.0 mg/kg/injection, schedule: Q04DX003 (ip), vehicle: saline with Tween-80 103 % of control | dose: 200.0 mg/kg/injection, schedule: Q04DX003 (ip), vehicle: saline with Tween-80 102 % of control | dose: 400.0 mg/kg/injection, schedule: Q04DX003 (ip), vehicle: saline with Tween-80 103 % of control

COc1ccc(-c2nc(C)cc3cc(OC)c(OC)cc23)cc1OC
inactive: dose: 12.5 mg/kg/injection, schedule: Q01DX009 (ip), vehicle: water 98 % of control | dose: 25.0 mg/kg/injection, schedule: Q01DX009 (ip), vehicle: water 100 % of control | dose: 50.0 mg/kg/injection, schedule: Q01DX009 (ip), vehicle: water 100 % of control | dose: 100.0 mg/kg/injection, schedule: Q01DX009 (ip), vehicle: water 100 % of control

COC(=O)c1c(-c2ccccc2)c(-c2ccccc2)nn(-c2ccccc2)c1=O
inactive: dose: 50.0 mg/kg/injection, schedule: Q01DX001 (ip), vehicle: saline with Tween-80 100 % of control and 102 % of control | dose: 100.0 mg/kg/injection, schedule: Q01DX001 (ip), vehicle: saline with Tween-80 99 % of control and 100 % of control | dose: 200.0 mg/kg/injection, schedule: Q01DX001 (ip), vehicle: saline with Tween-80 92 % of control and 97 % of control | dose: 400.0 mg/kg/injection, schedule: Q01DX001 (ip), vehicle: saline with Tween-80 87 % of control and 90 % of control

COc1ccc(-c2c(C#N)cnc(C)c2C)c(O)c1OC
inactive: [1] 96 % of control | [2] 92 % of control | [3] 96 % of control | [4] 90 % of control

CSc1nc(Cl)cc(N2CC2)n1
inactive: dose: 0.5 mg/kg/injection, schedule: Q04DX003 (ip), vehicle: saline 110 % of control | dose: 1.0 mg/kg/injection, schedule: Q04DX003 (ip), vehicle: saline 100 % of control | dose: 2.0 mg/kg/injection, schedule: Q04DX003 (ip), vehicle: saline 100 % of control

CCCCC1(C2c3ccccc3Oc3ccccc32)C(=O)N(c2ccccc2)N(c2ccccc2)C1=O
inactive: [5] 98 % of control | [6] 93 % of control | dose: 240.0 mg/kg/injection, schedule: Q01DX005 (ip), vehicle: saline with Tween-80 90 % of control

CC(C)CC(CO)Cc1nc2ccccc2[nH]1 (stereo unspecified)
inactive: [5] 114 % of control | [6] 105 % of control

CCN(CC)[P+](C1=C(Cl)C(=O)C(Cl)=C(Cl)C1=O)(N(CC)CC)N(CC)CC
inactive: [7] 105 % of control | [8] 93 % of control | [9] 103 % of control

CCC12OC(COc3ccccc3)CN1CCS2 (stereo unspecified)
inactive: [10] 98 % of control | [11] 107 % of control | [12] 99 % of control

COC(=O)C1=C(C(=O)OC)SC(=C2C3=C(SC(C(=O)OC)=C(C(=O)OC)S3)c3ccccc32)S1
inactive: dose: 30.0 mg/kg/injection, schedule: Q01DX005 (ip), vehicle: Klucel (hydroxypropylcellulose) (HPC) 96 % of control | dose: 60.0 mg/kg/injection, schedule: Q01DX005 (ip), vehicle: Klucel (hydroxypropylcellulose) (HPC) 87 % of control and 91 % of control | dose: 120.0 mg/kg/injection, schedule: Q01DX005 (ip), vehicle: Klucel (hydroxypropylcellulose) (HPC) 89 % of control | dose: 240.0 mg/kg/injection, schedule: Q01DX005 (ip), vehicle: Klucel (hydroxypropylcellulose) (HPC) 86 % of control

CC(=O)OC1CC23COC(=O)C4OC45CCO/C(=C/C/C=C\C(=O)OC4C[C@@H](OC2C=C1C)[C@@]1(CO1)[C@]43C)C5O (stereo partly specified)
inactive: dose: 0.32 mg/kg/injection, schedule: Q01DX009 (ip), vehicle: Klucel (hydroxypropylcellulose) (HPC) 100 % of control | dose: 125.0 micrograms/kg/injection, schedule: Q01DX009 (ip), vehicle: Klucel (hydroxypropylcellulose) (HPC) 110 % of control | dose: 250.0 micrograms/kg/injection, schedule: Q01DX009 (ip), vehicle: Klucel (hydroxypropylcellulose) (HPC) 118 % of control
active: dose: 1000.0 micrograms/kg/injection, schedule: Q01DX009 (ip), vehicle: Klucel (hydroxypropylcellulose) (HPC) 152 % of control

Cc1nn(C(=O)c2ccncc2)c(C)c1N=Nc1ccc(Cl)cc1
inactive: dose: 50.0 mg/kg/injection, schedule: Q01DX009 (ip), vehicle: saline 99 % of control | dose: 100.0 mg/kg/injection, schedule: Q01DX009 (ip), vehicle: saline 91 % of control | dose: 200.0 mg/kg/injection, schedule: Q01DX009 (ip), vehicle: saline 90 % of control

ClC(Cl)=C(Cl)Cl
inactive: [7] 102 % of control and 107 % of control | [1] 100 % of control and 109 % of control | [8] 107 % of control and 114 % of control | [2] 98 % of control and 103 % of control | [9] 105 % of control and 112 % of control | [3] 100 % of control and 107 % of control | [13] 108 % of control and 112 % of control | [4] 100 % of control | [14] 107 % of control and 110 % of control | dose: 300.0 mg/kg/injection, schedule: Q01DX009 (ip), vehicle: Klucel (hydroxypropylcellulose) (HPC) 104 % of control and 106 % of control

Cc1cc2c(cc1C)NC(c1ccc(C(N)=S)cc1)N2
inactive: dose: 100.0 mg/kg/injection, schedule: Q04DX002 (ip), vehicle: saline with Tween-80 92 % of control | dose: 200.0 mg/kg/injection, schedule: Q04DX002 (ip), vehicle: saline with Tween-80 86 % of control

COc1ccc(C(=O)CC(=O)C(=O)Nc2ccc(Cl)cc2)cc1
inactive: [10] 103 % of control | [11] 101 % of control | [12] 109 % of control

ClC(Cl)=Nc1ccccc1
inactive: [1] 103 % of control | [2] 103 % of control | [3] 110 % of control | [4] 93 % of control

Cc1c(C=O)cc(-c2ccccc2)n1C
inactive: [10] 89 % of control | [11] 89 % of control | [12] 91 % of control

OC1CC2OC2C1O (stereo unspecified)
inactive: [15] 103 % of control | [16] 111 % of control | [17] 111 % of control

O=C(O)c1cccc2c1-c1ccccc1C2=O
inactive: dose: 12.5 mg/kg/injection, schedule: Q01DX005 (ip), vehicle: Klucel (hydroxypropylcellulose) (HPC) 94 % of control | dose: 25.0 mg/kg/injection, schedule: Q01DX005 (ip), vehicle: Klucel (hydroxypropylcellulose) (HPC) 99 % of control | dose: 50.0 mg/kg/injection, schedule: Q01DX005 (ip), vehicle: Klucel (hydroxypropylcellulose) (HPC) 97 % of control | dose: 100.0 mg/kg/injection, schedule: Q01DX005 (ip), vehicle: Klucel (hydroxypropylcellulose) (HPC) 100 % of control | dose: 200.0 mg/kg/injection, schedule: Q01DX005 (ip), vehicle: Klucel (hydroxypropylcellulose) (HPC) 103 % of control

N/C(=C\S(=O)(=O)c1ccccc1)C12CC3CC(CC(C3)C1)C2
inactive: [9] 94 % of control | [13] 94 % of control | [14] 87 % of control

COc1cc(OC)c(C(=O)CCN(C)C)cc1OC
inactive: [15] 109 % of control | [16] 116 % of control | [17] 114 % of control

CCCCCCCC(=O)Nc1nnc(SCCCCCCCCCCSc2nnc(NC(=O)CCCCCCC)s2)s1
inactive: dose: 50.0 mg/kg/injection, schedule: Q01DX005 (ip), vehicle: Klucel + Tween-80 90 % of control | dose: 100.0 mg/kg/injection, schedule: Q01DX005 (ip), vehicle: Klucel + Tween-80 87 % of control | dose: 200.0 mg/kg/injection, schedule: Q01DX005 (ip), vehicle: Klucel + Tween-80 90 % of control

O=C1NC2(CCCCC2)C(=O)N1CCCCCN(CCCl)CCCl
inactive: dose: 1.5 mg/kg/injection, schedule: Q01DX005 (ip), vehicle: saline 111 % of control | dose: 3.0 mg/kg/injection, schedule: Q01DX005 (ip), vehicle: saline 119 % of control
active: dose: 40.0 mg/kg/injection, schedule: Q01DX005 (ip), vehicle: saline 160 % of control

CC1CN(C(=O)OCC23COC4(C)CCC(C)(OC2)N34)CC(C)O1 (stereo unspecified)
inactive: dose: 50.0 mg/kg/injection, schedule: Q01DX005 (ip), vehicle: saline 100 % of control | dose: 100.0 mg/kg/injection, schedule: Q01DX005 (ip), vehicle: saline 100 % of control | dose: 200.0 mg/kg/injection, schedule: Q01DX005 (ip), vehicle: saline 100 % of control
